From patent US8980222B2, “Diagnostic use of endothelin ETB receptor agonists and ETA receptor antagonists in tumor imaging” (The Board of Trustees of the University of Illinois, priority 2004, dated 2015)
Where two headings read alike, the source gives them in different places. Non-standard residues stand in square brackets, D forms with d. Residues, ends and D or L forms follow the SMILES beside them.

Legend:
[1] = system: tumor; experiment: Tumor blood flow with ETA receptor antagonists; conditions: in vivo
Procedure: A study using BMS182874, an ETA receptor antagonist, also was conducted.

[2] = system: tumor; conditions: Sonveaux et al. 2004; cited from earlier work
[3] = system: breast tumor; experiment: Breast tumor blood perfusion by Laser Doppler Flowmetry in MNU-induced mammary tumor rats; assay type: in vivo, rat; conditions: for Maximal increase in tumor perfusion (%): Laser Doppler Flowmetry, breast tumor-bearing rats
Procedure: MNU or saline treatments were carried out as intraperitoneal injections three months prior to the study. Rats were regularly palpated from four weeks after onset of the treatments. When the tumors reached an optimal size (i.e., 4-8 mm in diameter), the experiments were begun. Systemic hemodynamic and regional circulation parameters were determined at baseline, 30, 60, and 120 minutes after initiating ET-1 (50 ng/kg/min) infusion.
Blood perfusion to the mammary gland of the rats was measured using laser Doppler flowmetry as described in literature procedures (23, 24). The animals were shaved around the nipples. The skin surrounding the mammary glands was dissected out as a lambeau about 6 cm wide and 4 cm long. A standard model fiber optic probe was applied to the surface of the lambeau, and secured to the tissue by double stick tape. The lambeau was placed in a metal holder and taped down to prevent movement, then connected to a Periflux PF2b 4000 Laser Doppler Flowmetry (Perimed KB, Stockholm, Sweden). The time constant was set at 1.5 seconds and the bandwidth was set at 4 KHz.
A preclinical model of MNU-induced primary autochthonous mammary tumor was used in the following studies. This tumor model of breast cancer offers several advantages over other models (Rai et al., Cancer Chemother. Parmaacol., 51(1):21-8 (2003)). Virgin female Sprague Dawley rats were used for the study. At 48 days of age, rats received a single injection of N-methyl nitrosourea (MNU; 50 mg/kg, i.v.). Eighty percent of the animals developed tumors two months after MNU injection and 10% of total rats may die or loose weight due to MNU injection or develop a tumor after several months. Tumor appearance and location is monitored by manual mammary gland palpation and the tumor diameter is measured with a digital caliper. Rats with a tumor volume of 200-500 mm^3 were selected for the experiments.
FIG. 2 illustrates the effect of IRL-1620 on breast tumor perfusion (N=5/group). Breast tumor-bearing rats were anesthetized and mammary tumor perfusion was recorded using a Laser Doppler Flowmetry for three hours. A 15-minute stable baseline recording was obtained before the administration of saline or IRL-1620 1, 3, or 9 nmol/kg via the tail vein in a final volume of 0.2 ml. Tumor perfusion was recorded for three hours (*p<0.001 compared to vehicle-treated rats).
Animals received BQ 788 ([…]) or saline via tail vein 15 minutes before the administration of IRL-1620 (3 nmol/kg) and tumor perfusion was recorded for three hours (*p<0.001 compared to BQ 788-administered rats). Studies also were conducted to determine the effect of IRL-1620 on blood perfusion in normal mammary tissue.

[4] = system: ETA and ETB receptors; conditions: cited from earlier work

Row | Compound | Maximal increase in tumor perfusion (%) [3] | Selectivity for ETB receptors than ETA receptors [4] | also measured
1 | Cc1noc(NS(=O)(=O)c2cccc3c(N(C)C)cccc23)c1C [BMS182874] | – | – | Tumor blood flow [1]: increased the tumor blood flow
2 | CC(C)C[C@@H]1NC(=O)[C@@H](C(C)C)NC(=O)[C@@H]2CCCN2C(=O)[C@@H](CC(=O)O)NC(=O)[C@@H](Cc2c[nH]c3ccccc23)NC1=O [BQ123] (cyclo(L[dW][dD]P[dV])) | – | – | Tumor blood flow [2]: significantly improved
3 | CCCC[C@@H](NC(=O)[C@@H](Cc1cn(C(=O)OC)c2ccccc12)NC(=O)[C@H](CC(C)(C)C)NC(=O)N1[C@H](C)CCC[C@@H]1C)C(=O)O [BQ788, N-cis-2,6-dimethylpiperidinocarbonyl-L-gamma-methylleucyl-D-1-methoxycarbonyltrptophanyl-D-Nle] | – | – | Effect of antagonist on IRL-1620 induced tumor blood perfusion ([3]; BQ 788 0.5 μg/kg 15 minutes before IRL-1620 3 nmol/kg): completely blocked; Effect of antagonist on ET-1 induced increase in tumor blood flow ([3]; ET-1 induced): completely blocked
4 | CC[C@H](C)[C@H](NC(=O)[C@H](CC(=O)O)NC(=O)[C@H](CC(C)C)NC(=O)[C@H](Cc1c[nH]cn1)NC(=O)[C@@H]1CSSC[C@H](N)C(=O)N[C@@H](CO)C(=O)N[C@H]2CSSC[C@H](NC(=O)[C@H](CCC(=O)O)NC(=O)[C@H](CCCCN)NC(=O)[C@H](CC(=O)O)NC(=O)[C@H](CCSC)NC(=O)[C@H](CC(C)C)NC(=O)[C@H](CO)NC(=O)[C@H](CO)NC2=O)C(=O)N[C@@H](C(C)C)C(=O)N[C@@H](Cc2ccc(O)cc2)C(=O)N[C@@H](Cc2ccccc2)C(=O)N1)C(=O)N[C@H](C(=O)N[C@@H](Cc1c[nH]c2ccccc12)C(=O)O)[C@@H](C)CC [ET-1, Endothelin-1] | 46.19% | equal affinity | Breast tumor perfusion after exogenous infusion ([3]; rat, in vivo): transient increase; Perfusion to major organs ([3]; rat, in vivo): without altering perfusion
5 | ET-3: ET agonist three times more selective for ETB receptors than ETA receptors | 47.99% | three times more selective | –
6 | [Ala^1, 3, 11, 15]-ET-1 (ASASSLMDKEAVYFAHLDIIW; Endothelin-1; UniProt P05305 53-73, looked up, variant C1A C3A C11A C15A) [4 Ala ET-1] | 53.96% | 1700 times | –
